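Briefly, cells in 96-well plates were exposed to five compound concentrations for 48 h, and endpoints were estimated by linear interpolation. GI50 = concentration required for 50% inhibition of growth.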 Active and inactive are the calls of the source. No stated cut-off is given here; in the data, active = GI50 up to about 1.1 µM and inactive = higher. A value given as a limit tells only on which side of the number the result lay.

Among the test systems are BT-549; SW-620; MDA-MB-435; SK-OV-3; RXF 393; HOP-92; KM12; SR; SK-MEL-5; NCI-H23; SF-268; OVCAR-8; NCI-H226; ACHN; U-251; CCRF-CEM; A498; CAKI-1; DU-145.
Common to all, as to test: NCI tumour cell line growth inhibition, 48 h

For `N/N=C(\C(=O)Nc1ccc([N+](=O)[O-])cc1)C(C1=Nc2cc([N+](=O)[O-])ccc2NC1)[N+](=O)[O-]` (configuration not stated), the GI50 in the experiment on BT-549 is > 100 µM (inactive); with SW-620, 91.4 µM (inactive); in the experiment on MDA-MB-435, 88.3 µM (inactive); with SK-OV-3 it was > 100 µM (inactive); with RXF 393, > 100 µM (inactive); with HOP-92, > 100 µM (inactive). Besides, the GI50 with KM12 is 32 µM (inactive); in the experiment on SR it was > 100 µM (inactive); in the experiment on SK-MEL-5, 74.1 µM (inactive); in the experiment with NCI-H23 it was > 100 µM (inactive); with SF-268, > 100 µM (inactive); with OVCAR-8, > 100 µM (inactive). In addition, the GI50 in the experiment with NCI-H226 was > 100 µM (inactive); in the experiment with ACHN it was 43.1 µM (inactive); in the experiment with U-251, > 100 µM (inactive); in the experiment with CCRF-CEM, 65.2 µM (inactive); in the experiment with A498, > 100 µM (inactive); in the experiment with CAKI-1 it was 79.4 µM (inactive).

`COc1cc([C@@H]2c3cc4c(cc3[C@@H](c3c(O)cc(O)c5c3O[C@H](c3ccc(O)c(O)c3)[C@@H](O)C5)[C@H]3COC(=O)[C@H]23)OCO4)cc(OC)c1OC`: the GI50 in the experiment on BT-549 is > 100 µM (inactive); in the experiment with SW-620, 32 µM (inactive); with MDA-MB-435 it was 1.75 µM (inactive); with SK-OV-3, 1.83 µM (inactive); in the experiment on RXF 393, 1.71 µM (inactive); in the experiment with HOP-92, > 100 µM (inactive). For the same molecule, the GI50 in the experiment with KM12 is 1.76 µM (inactive); in the experiment on SK-MEL-5, 17 µM (inactive); in the experiment with NCI-H23, 78 µM (inactive); in the experiment on DU-145, 1.73 µM (inactive); in the experiment with SF-268, 29.7 µM (inactive); in the experiment with OVCAR-8, 44.4 µM (inactive). For the same molecule, the GI50 was 1.78 µM (inactive) with ACHN; 1.69 µM (inactive) in the experiment with U-251; 50.7 µM (inactive) in the experiment on CCRF-CEM; 1.6 µM (inactive) with A498; 1.97 µM (inactive) in the experiment with CAKI-1.

On to `COc1ccccc1N1CCN(S(=O)(=O)c2ccc(Cl)cc2)C1=N`, for which the GI50 was > 100 µM (inactive) in the experiment with BT-549; 64.6 µM (inactive) in the experiment with SW-620; 45.9 µM (inactive) with MDA-MB-435; > 100 µM (inactive) with SK-OV-3; > 100 µM (inactive) in the experiment on RXF 393; 82.4 µM (inactive) with KM12. Moreover, the GI50 is 56.2 µM (inactive) in the experiment on SK-MEL-5; 60 µM (inactive) with NCI-H23; 47.5 µM (inactive) in the experiment on DU-145; > 100 µM (inactive) in the experiment on SF-268; 63.2 µM (inactive) with OVCAR-8; 48.9 µM (inactive) in the experiment with ACHN. Besides, the GI50 with U-251 is 37.5 µM (inactive); in the experiment on A498, > 100 µM (inactive); in the experiment with CAKI-1, > 100 µM (inactive).

For `CC(/C=N\NC(=S)N1CCCCC1)=N/NC(=S)N1CCCCC1`, the GI50 in the experiment on BT-549 is 3.03 µM (inactive); with SW-620 it was 0.935 µM (active); in the experiment on MDA-MB-435, 2.75 µM (inactive); in the experiment on SK-OV-3, 1.04 µM (active); in the experiment with RXF 393, 2.01 µM (inactive); in the experiment with HOP-92 it was 2.38 µM (inactive). In addition, the GI50 in the experiment with KM12 is 1.09 µM (active); with SK-MEL-5 it was 1.23 µM (inactive); with NCI-H23, 2.42 µM (inactive); in the experiment with DU-145, 0.547 µM (active); in the experiment on SF-268, 1.05 µM (active); in the experiment on OVCAR-8, 0.551 µM (active). The GI50 with NCI-H226 is 1.09 µM (active); in the experiment on ACHN, 0.611 µM (active); in the experiment with U-251, 0.815 µM (active); in the experiment with A498, 1.35 µM (inactive); in the experiment on CAKI-1, 1.33 µM (inactive).

On to `O=C(C(=C(I)I)c1ccccc1)c1ccccc1`, for which the GI50 is 55.7 µM (inactive) with BT-549; 28.8 µM (inactive) with SW-620; 31.1 µM (inactive) with MDA-MB-435; 59.6 µM (inactive) in the experiment with SK-OV-3; 33 µM (inactive) with HOP-92; 14.2 µM (inactive) in the experiment with SR. Also, the GI50 in the experiment with SK-MEL-5 was 16.8 µM (inactive); in the experiment with NCI-H23, 21 µM (inactive); in the experiment on SF-268 it was 22.6 µM (inactive); in the experiment on OVCAR-8, 37.2 µM (inactive); with ACHN, 29.7 µM (inactive); in the experiment on CCRF-CEM, 1.08 µM (active). In addition, the GI50 in the experiment on A498 was 13.1 µM (inactive); with CAKI-1 it was 38.4 µM (inactive).

With `S=C(NN=C1NCCCN1)Nc1ccccc1`, the GI50 in the experiment on BT-549, in the experiment on SW-620, in the experiment on MDA-MB-435, in the experiment with SK-OV-3, in the experiment with RXF 393 and in the experiment with HOP-92 was > 100 µM (inactive) in each case. Also, the GI50 was > 100 µM (inactive) with KM12; 63.1 µM (inactive) in the experiment on SR; > 100 µM (inactive) in the experiment on SK-MEL-5; > 100 µM (inactive) in the experiment on NCI-H23; > 100 µM (inactive) in the experiment with SF-268; > 100 µM (inactive) in the experiment with OVCAR-8. The GI50 was > 100 µM (inactive) with NCI-H226; > 100 µM (inactive) with ACHN; > 100 µM (inactive) in the experiment on U-251; 43.3 µM (inactive) in the experiment with CCRF-CEM; > 100 µM (inactive) in the experiment with A498; > 100 µM (inactive) in the experiment on CAKI-1.

As to `CCOC(=O)c1cn(CC)c2ccc3c(c2c1=O)S(=O)(=O)C=C3`, the GI50 was > 100 µM (inactive) in the experiment on BT-549; > 100 µM (inactive) with SW-620; > 100 µM (inactive) in the experiment with MDA-MB-435; > 100 µM (inactive) in the experiment with SK-OV-3; 47 µM (inactive) in the experiment with RXF 393; > 100 µM (inactive) in the experiment on HOP-92. The GI50 in the experiment with KM12, in the experiment with SK-MEL-5, with NCI-H23, with DU-145, with SF-268 and in the experiment with OVCAR-8 was > 100 µM (inactive) throughout. The GI50 was 63.7 µM (inactive) in the experiment on NCI-H226; > 100 µM (inactive) in the experiment on ACHN; > 100 µM (inactive) in the experiment on U-251; > 100 µM (inactive) in the experiment on CCRF-CEM; > 100 µM (inactive) in the experiment on A498; > 100 µM (inactive) in the experiment on CAKI-1.

Take `CCCCNc1nc(N)nc(Nc2ccc(Br)cc2)c1N=O`: the GI50 is 44.7 µM (inactive) in the experiment with BT-549; > 100 µM (inactive) in the experiment with SW-620; > 100 µM (inactive) in the experiment on MDA-MB-435; 32.7 µM (inactive) with RXF 393; > 100 µM (inactive) with KM12; 6.43 µM (inactive) with SR. In addition, the GI50 was > 100 µM (inactive) with SK-MEL-5; > 100 µM (inactive) with NCI-H23; 96.8 µM (inactive) with DU-145; > 100 µM (inactive) in the experiment with SF-268; 70.5 µM (inactive) in the experiment on OVCAR-8; > 100 µM (inactive) in the experiment on NCI-H226. Besides, the results for the GI50 with ACHN, in the experiment on U-251 and with CCRF-CEM were 60.3 µM (inactive), 31.1 µM (inactive) and 42.1 µM (inactive), respectively.

As for `CC(NC(=O)C(N)CC(=O)O)NC(=O)N1CCCC1` (configuration not stated), the GI50 in the experiment on BT-549, in the experiment on SW-620, in the experiment on MDA-MB-435, in the experiment on SK-OV-3, with RXF 393 and with HOP-92 was > 100 µM (inactive) throughout. Also, the GI50 in the experiment on KM12, in the experiment on SK-MEL-5, in the experiment on NCI-H23, with DU-145, in the experiment on SF-268 and in the experiment with OVCAR-8 was > 100 µM (inactive) throughout. For the same molecule, the GI50 in the experiment with NCI-H226, in the experiment on ACHN, in the experiment on U-251, in the experiment on CCRF-CEM, in the experiment with A498 and in the experiment with CAKI-1 was > 100 µM (inactive) throughout.

Turning to `CCOC(=O)C1=NOC2(C=C(Br)C(=O)C(Br)=C2)C1`, the GI50 with BT-549 was 5.21 µM (inactive); in the experiment with SW-620, 0.37 µM (active); with MDA-MB-435, 1.76 µM (inactive); in the experiment on SK-OV-3 it was 8.39 µM (inactive); in the experiment on RXF 393 it was 1.59 µM (inactive); with HOP-92, 1.82 µM (inactive). For the same molecule, the GI50 with KM12 is 13.4 µM (inactive); in the experiment with SK-MEL-5 it was 7.67 µM (inactive); in the experiment with NCI-H23, 3.05 µM (inactive); in the experiment on DU-145 it was 6.7 µM (inactive); in the experiment with SF-268, 14.8 µM (inactive); in the experiment with OVCAR-8 it was 2.04 µM (inactive). Further, the GI50 is 25.8 µM (inactive) in the experiment with NCI-H226; 0.923 µM (active) in the experiment with ACHN; 9.93 µM (inactive) with U-251; < 0.0132 µM (active) in the experiment with CCRF-CEM; 20.1 µM (inactive) in the experiment with A498; 1.3 µM (inactive) in the experiment with CAKI-1.

As to `Cc1ccc(S(=O)(=O)n2cnc(CC(NC(=O)C3CCC(=O)N3C(=O)OCc3ccccc3)C(=O)N3CCCC3C(=O)NN)c2)cc1` (configuration not stated), the GI50 in the experiment on BT-549, in the experiment on SW-620, with HOP-92, in the experiment on KM12, in the experiment with SR and with SK-MEL-5 was > 100 µM (inactive) throughout. The GI50 was > 100 µM (inactive) in the experiment with NCI-H23; > 100 µM (inactive) with OVCAR-8; 24.8 µM (inactive) in the experiment with NCI-H226; > 100 µM (inactive) in the experiment on ACHN; > 100 µM (inactive) in the experiment on U-251; > 100 µM (inactive) in the experiment on A498.

For the molecule `Oc1ccccc1C1=NOC(c2ccc(C(F)(F)F)cc2)C1` (configuration not stated), the GI50 with BT-549, in the experiment with SW-620, in the experiment with MDA-MB-435, in the experiment with SK-OV-3, with RXF 393 and with KM12 was > 50 µM (inactive) in each case. Besides, the GI50 with SK-MEL-5, with NCI-H23, in the experiment with DU-145, with SF-268, in the experiment on OVCAR-8 and in the experiment with NCI-H226 was > 50 µM (inactive) each time. Besides, the GI50 with ACHN, with U-251, in the experiment on CCRF-CEM, in the experiment on A498 and in the experiment on CAKI-1 was > 50 µM (inactive) in each case.

These data come from ChEMBL document CHEMBL1201862, “PubChem BioAssay data set” (2004).
